# Data published in patent US8637536B2, “Pyrimidinone compounds for use in the treatment of diseases or conditions mediated by Lp-PLA2” (Glaxo Group Limited, priority 2010, dated 2014).
# How the values were obtained:
# [1] = target: T1, recombinant human Lp-PLA2 (Homo sapiens, UniProt Q13093); experiment: Recombinant human Lp-PLA2 assay (rhLp-PLA2, PED6 assay); type: biochemical; conditions: text thresholds; upper limit for pIC50 in this assay is 9.3; read-out: pIC50 values in the PED6 assay (converted)
# T1 sequence (Q13093 22-441): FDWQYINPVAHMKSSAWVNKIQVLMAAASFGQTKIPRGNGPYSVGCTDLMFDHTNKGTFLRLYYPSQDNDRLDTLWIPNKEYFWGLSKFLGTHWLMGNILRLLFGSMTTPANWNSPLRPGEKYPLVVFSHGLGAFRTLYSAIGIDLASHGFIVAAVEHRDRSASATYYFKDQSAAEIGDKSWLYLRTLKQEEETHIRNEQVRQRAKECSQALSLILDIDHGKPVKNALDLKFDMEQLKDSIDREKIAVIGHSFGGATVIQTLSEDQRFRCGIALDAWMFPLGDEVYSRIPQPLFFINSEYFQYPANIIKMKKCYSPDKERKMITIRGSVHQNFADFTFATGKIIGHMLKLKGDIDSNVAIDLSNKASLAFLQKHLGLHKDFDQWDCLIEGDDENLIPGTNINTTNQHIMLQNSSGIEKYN
# Source text: (1) Recombinant Human Lp-PLA2 Assay (rhLp-PLA2) (Also Referred to as “PED6” Assay)
# N-((6-(2,4-dinitrophenyl)amino)-hexanoyl)-2-(4,4-difluoro-5,7-dimethyl-4-bora-3a,4a-diaza-s-indacene-3-pentanoyl)-1-hexadecanoyl-sn-glycero-3-phosphoethanolamine, triethylammonium salt (PED6) is a commercially available fluorescently-labelled phospholipid, which is commercially available from Molecular Probes. There is a quenching […] position and a Bodipy fluorescein (FL) group in the sn2 position.
# The PED6 assay was run as an unquenched 10 μL assay. Compounds source plate was prepared by making 1:3 (by volume) serial dilution of the compounds into pure DMSO on 384-well microplate. […] 5 μL of recombinant human Lp-PLA2 enzyme (2 nM rhLp-PLA2 in assay buffer of 50 mM HEPES, pH7.4, 150 mM NaCl, 1 mM CHAPS) was added to each well of the plate with compounds. Plates were centrifuged for 10 sec at 500 rpm. […] Plates were centrifuged for 10 sec at 500 rpm. Plate was covered to protect from light and incubated for 20 min at room temperature. […] PIC50 data, curve and QC analysis was conducted by using XL fit module in Excel.
# [2] = target: T2, Lp-PLA2 from plasma (pooled human plasma) (Homo sapiens, UniProt Q13093); experiment: Lp-PLA2 human plasma assay (Thio-PAF assay); type: biochemical; conditions: text thresholds, read-out: pIC50 values in the thio-PAF assay (converted)
# T2 construct: 8 μL pooled human plasma; from tissue; host or cells: pooled human plasma
# T2 sequence (Q13093 22-441): T1 sequence (Q13093 22-441)
# Source text: (3) Lipoprotein-Associated Phospholipase A2 (Lp-PLA2) Human Plasma Assay (Also Referred to as “Thio-PAF Assay”)
# The human plasma assay utilizes a thioester analog of PAF (phosphatidylcholine), where hydrolysis yields to the formation of a phospholipid containing a free thiol group. The amount of thiol is quantitated continuously by reacting with CPM (7-diethylamino-3-(4′-maleimidylphenyl)-4-methylcoumarin), a maleimide which increases in fluoresence after Michael addition of thiols. This assay may detect the activity of Lp-PLA2 from plasma, as determined by specific inhibition by Lp-PLA2 inhibitors.
# The thio-PAF assay was run as a quenched 15 μL assay. Compounds source plate was prepared by making 1:3 (by volume) serial dilution of the compounds into pure DMSO on 384-well microplate. 0.01 μL of compounds on compound source plate were transferred to 384 well Greiner 784076 (black) low-volume plates by ECHO liquid dispenser. 8 μL pooled human plasma, which was previously aliquoted and frozen, was added. Plates were centrifuged for 10 sec at 500 rpm. After 30 minutes preincubation, 2 μL of substrate (2.5 mM thio-PAF, 3.2 mM NEM (N-ethylmaleimide) [made fresh daily in DMSO], and 32 μM CPM [from a DMSO stock] in assay buffer of 50 mM HEPES, pH7.4, 150 mM NaCl, 1 mM CHAPS was added to 384 well Greiner 784076 (black) low-volume plates by BRAVO liquid handling station. Plates were centrifuged for 10 sec at 500 rpm. Plate was covered to protect from light and incubated for 2 min at room temperature. Reaction was quenched with 5 μL of 5% aqueous trifluoroacetic acid (TFA). Plates were covered to protect from light and incubated for 40 min at room temperature. Plates were read at ex: 380/em: 485 using-Envision microplate reader. PIC50 data, curve and QC analysis was conducted by using XLFit module in Excel.
Structure (SMILES),IC50 [1] [nM],IC50 [2] [nM]
"COc1ncc(Cc2cn(C)c(SCc3ccc(Oc4ccc(Cl)c(C(F)(F)F)c4)c(C#N)c3)nc2=O)cn1 [E85, 2-{[4-chloro-3-(trifluoromethyl)phenyl]oxy}-5-{[(1-methyl-5-{[2-(methyloxy)-5-pyrimidinyl]methyl}-4-oxo-1,4-dihydro-2-pyrimidinyl)thio]methyl}benzonitrile]",≤ 1,≤ 100
"N#Cc1cc(CSc2nc(=O)c(Cc3cncnc3)c[nH]2)ccc1Oc1ccc(F)c(C(F)(F)F)c1 [E87, 2-{[4-fluoro-3-(trifluoromethyl)phenyl]oxy}-5-({[4-oxo-5-(5-pyrimidinylmethyl)-1,4-dihydro-2-pyrimidinyl]thio}methyl)benzonitrile]",≤ 1,≤ 1000
"Cn1cc(Cc2cncnc2)c(=O)nc1SCc1ccc(Oc2cccc(C(F)(F)F)c2)c(C#N)c1 [E97, 5-({[1-methyl-4-oxo-5-(5-pyrimidinylmethyl)-1,4-dihydro-2-pyrimidinyl]thio}methyl)-2-{[3-(trifluoromethyl)phenyl]oxy}benzonitrile]",≤ 1,≤ 100
"Cn1cc(Cc2c[nH]c(OCCc3ccc(Oc4cc(Cl)cc(C(F)(F)F)c4)cc3)nc2=O)cn1 [E162, 2-{[2-(4-{[3-chloro-5-(trifluoromethyl)phenyl]oxy}phenyl)ethyl]oxy}-5-[(1-methyl-1H-pyrazol-4-yl)methyl]-4(1H)-pyrimidinone]",≤ 10,≤ 100
"COc1ncc(Cc2c[nH]c(OCCc3ccc(Oc4ccc(C)c(F)c4)cc3)nc2=O)cn1 [E157, 2-[(2-{4-[(3-fluoro-4-methylphenyl)oxy]phenyl}ethyl)oxy]-5-{[2-(methyloxy)-5-pyrimidinyl]methyl}-4(1H)-pyrimidinone]",,≤ 1000
"Cc1ncc(Cc2c[nH]c(NCCc3ccc(Oc4ccc(C(F)(F)F)cn4)c(C#N)c3)nc2=O)cn1 [E203, 5-{2-[5-(2-Methyl-pyrimidin-5-ylmethyl)-4-oxo-1,4-dihydro-pyrimidin-2-ylamino]-ethyl}-2-(5-trifluoromethyl-pyridin-2-yloxy)-benzonitrile]",,≤ 100
"O=c1nc(NCCc2ccc(Oc3ccc(Cl)cc3)cc2)[nH]cc1Cc1cncnc1 [E194, 2-{2-[4-(4-Chloro-phenoxy)-phenyl]-ethylamino}-5-pyrimidin-5-ylmethyl-1H-pyrimidin-4-one]",,≤ 1000
"COc1ncc(Cc2cn(C)c(CCc3ccc(Oc4ccc(Cl)c(C(F)(F)F)c4)cc3)nc2=O)cn1 [E3, 2-[2-(4-{[4-Chloro-3-(trifluoromethyl)phenyl]oxy}phenyl)ethyl]-1-methyl-5-{[2-(methyloxy)-5-pyrimidinyl]methyl}-4(1H)-pyrimidinone]",,≤ 1000
"Cc1ncc(Cc2c[nH]c(NCCc3ccc(Oc4ccc(Cl)c(C(F)(F)F)c4)c(C#N)c3)nc2=O)cn1 [E211, 2-(4-Chloro-3-trifluoromethyl-phenoxy)-5-{2-[5-(2-methyl-pyrimidin-5-ylmethyl)-4-oxo-1,4-dihydro-pyrimidin-2-ylamino]-ethyl}-benzonitrile]",,≤ 1000
"Cn1cc(Cc2cncnc2)c(=O)nc1SCc1ccc(Oc2ccc(F)c(C(F)(F)F)c2)c(C#N)c1 [E88, 2-{[4-fluoro-3-(trifluoromethyl)phenyl]oxy}-5-({[1-methyl-4-oxo-5-(5-pyrimidinylmethyl)-1,4-dihydro-2-pyrimidinyl]thio}methyl)benzonitrile]",,≤ 100
"Cc1ncc(Cc2c[nH]c(NCCc3ccc(Oc4ccc(C(F)(F)F)cn4)cc3)nc2=O)cn1 [E208, 5-(2-methyl-pyrimidin-5-ylmethyl)-2-{2-[4-(5-trifluoromethyl-pyridin-2-yloxy)phenyl]ethylamino}-1H-pyrimidin-4-one]",,≤ 1000
"COc1ncc(Cc2c[nH]c(NCCc3ccc(Oc4cccc(C(F)(F)F)c4)cc3)nc2=O)cn1 [E193, 5-(2-methoxy-pyrimidin-5-ylmethyl)-2-{2-[4-(3-trifluoromethyl-phenoxy)phenyl]-ethylamino}-1H-pyrimidin-4-one]",,≤ 1000
"Cn1cc(Cc2cncnc2)c(=O)nc1SCc1ccc(Oc2ccc(C(F)(F)F)cn2)c(C#N)c1 [E105, 5-({[1-methyl-4-oxo-5-(5-pyrimidinylmethyl)-1,4-dihydro-2-pyrimidinyl]thio}methyl)-2-{[5-(trifluoromethyl)-2-pyridinyl]oxy}benzonitrile]",,≤ 100
"O=c1ncc(Cc2c[nH]c(NCCc3ccc(Oc4ccc(Cl)c(C(F)(F)F)c4)cc3)nc2=O)c[nH]1 [E209, 2-{2-[4-(4-chloro-3-trifluoromethyl-phenoxy)-phenyl]ethylamino}-5-(2-oxo-1,2-dihydro-pyrimidin-5-ylmethyl)-1H-pyrimidin-4-one]",,≤ 1000
"Cc1ncc(Cc2c[nH]c(NCCc3ccc(Oc4ccc(C(F)(F)F)c(Cl)c4)cc3)nc2=O)cn1 [E207, 2-{2-[4-(3-chloro-4-trifluoromethyl-phenoxy)-phenyl]ethylamino}-5-(2-methyl-pyrimidin-5-ylmethyl)-1H-pyrimidin-4-one]",,≤ 1000

# The next lines start with the values.
IC50 [1] [nM],IC50 [2] [nM],Structure (SMILES)
≤ 1,≤ 100,"Cn1cc(Cc2cncnc2)c(=O)nc1OCCc1ccc(Oc2ccc(Cl)c(C(F)(F)F)c2)c(F)c1 [E141, 2-{[2-(4-{[4-chloro-3-(trifluoromethyl)phenyl]oxy}-3-fluorophenyl)ethyl]oxy}-1-methyl-5-(5-pyrimidinylmethyl)-4(1H)-pyrimidinone]"
,≤ 100,"COc1ncc(Cc2c[nH]c(OCCc3ccc(Oc4cnc(C(F)(F)F)nc4)c(F)c3)nc2=O)cn1 [E167, 2-(3-fluoro-4-((2-(trifluoromethyl)pyrimidin-5-yl)oxy)phenethoxy)-5-((2-methoxypyrimidin-5-yl)methyl)pyrimidin-4(1H)-one]"
,≤ 100,"COc1ncc(Cc2c[nH]c(OCCc3cc(F)c(Oc4ccc(Cl)c(C(F)(F)F)c4)c(F)c3)nc2=O)cn1 [E176, 2-{[2-(4-{[4-chloro-3-(trifluoromethyl)phenyl]oxy}-3,5-difluorophenyl)ethyl]oxy}-5-{[2-(methyloxy)-5-pyrimidinyl]methyl}-4(1H)-pyrimidinone]"
,≤ 100,"CCc1cn(C)c(OCCc2cc(F)c(Oc3ccc(Cl)c(C(F)(F)F)c3)c(F)c2)nc1=O [E175, 2-{[2-(4-{[4-chloro-3-(trifluoromethyl)phenyl]oxy}-3,5-difluorophenyl)ethyl]oxy}-5-ethyl-1-methyl-4(1H)-pyrimidinone]"
,≤ 100,O=c1nc(OCCc2cc(F)c(Oc3cnc(C(F)(F)F)nc3)c(F)c2)[nH]cc1Cc1cncnc1 [E168]
,≤ 100,"COc1ncc(Cc2c[nH]c(OCCc3ccc(Oc4cc(Cl)cc(C(F)(F)F)c4)cc3)nc2=O)cn1 [E165, 2-{[2-(4-{[3-chloro-5-(trifluoromethyl)phenyl]oxy}phenyl)ethyl]oxy}-5-{[2-(methyloxy)-5-pyrimidinyl]methyl}-4(1H)-pyrimidinone]"
,≤ 100,"O=c1nc(OCCc2ccc(Oc3ccc(Cl)c(OC(F)(F)F)c3)cc2)[nH]cc1Cc1cncnc1 [E177, 2-(4-(4-chloro-3-(trifluoromethoxy)phenoxy)phenethoxy)-5-(pyrimidin-5-ylmethyl)pyrimidin-4(1H)-one]"
